Values joined by “and” are separate entries in the source; they are usually repeats but may differ in a detail not shown here. Identical values can stand only once. Toxic doses and inconclusive results are not listed. Cut-off read from the data, not from the text of the source: active = T/C of 150% or more; inactive = T/C below 125%.
System: L1210 leukemia ip in BDF1 mice, survival T/C
Experiment: NCI In Vivo Anticancer Drug Screen. Data for tumor model L1210 Leukemia (intraperitoneal) in B6D2F1 (BDF1) mice
Settings: endpoint: mean survival time, higher = longer survival
Outline: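 Each compound was tested against a transplantable tumor grown in mice. The endpoint was survival, with treated animals benchmarked against vehicle controls as a simple ratio.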

[1] = dose: 100.0 mg/kg/injection, schedule: Q04DX003 (ip), vehicle: saline with Tween-80
[2] = dose: 200.0 mg/kg/injection, schedule: Q04DX003 (ip), vehicle: saline with Tween-80
[3] = dose: 400.0 mg/kg/injection, schedule: Q04DX003 (ip), vehicle: saline with Tween-80
[4] = dose: 100.0 mg/kg/injection, schedule: Q04DX003 (ip), vehicle: Klucel (hydroxypropylcellulose) (HPC)
[5] = dose: 200.0 mg/kg/injection, schedule: Q04DX003 (ip), vehicle: Klucel (hydroxypropylcellulose) (HPC)
[6] = dose: 400.0 mg/kg/injection, schedule: Q04DX003 (ip), vehicle: Klucel (hydroxypropylcellulose) (HPC)
[7] = dose: 25.0 mg/kg/injection, schedule: Q01DX009 (ip), vehicle: saline with Tween-80
[8] = dose: 100.0 mg/kg/injection, schedule: Q01DX001 (ip), vehicle: saline with Tween-80
[9] = dose: 200.0 mg/kg/injection, schedule: Q01DX001 (ip), vehicle: saline with Tween-80
[10] = dose: 50.0 mg/kg/injection, schedule: Q01DX009 (ip), vehicle: saline with Tween-80
[11] = dose: 50.0 mg/kg/injection, schedule: Q01DX009 (ip), vehicle: Klucel (hydroxypropylcellulose) (HPC)
[12] = dose: 100.0 mg/kg/injection, schedule: Q01DX009 (ip), vehicle: Klucel (hydroxypropylcellulose) (HPC)
[13] = dose: 200.0 mg/kg/injection, schedule: Q01DX009 (ip), vehicle: Klucel (hydroxypropylcellulose) (HPC)
[14] = dose: 100.0 mg/kg/injection, schedule: Q01DX001 (ip), vehicle: carboxymethylcellulose (CMC)
[15] = dose: 200.0 mg/kg/injection, schedule: Q01DX001 (ip), vehicle: carboxymethylcellulose (CMC)
[16] = dose: 400.0 mg/kg/injection, schedule: Q01DX001 (ip), vehicle: carboxymethylcellulose (CMC)

Measured: T/C

CC(C)C(=O)Nc1ccc(S(=O)(=O)Cl)cc1
inactive: [1] 95 % of control | [2] 90 % of control | [3] 86 % of control

Oc1ccc2ccccc2c1C=Nc1ccc(Br)cc1
inactive: [4] 91 % of control | [5] 90 % of control | [6] 91 % of control

CCC(C)(CC)c1ccc(O)c(C)c1
inactive: dose: 100.0 mg/kg/injection, schedule: Q01DX009 (sc), vehicle: olive oil, sesame oil, peanut oil 104 % of control | dose: 100.0 mg/kg/injection, schedule: Q04DX003 (sc), vehicle: olive oil, sesame oil, peanut oil 104 % of control | dose: 200.0 mg/kg/injection, schedule: Q01DX009 (sc), vehicle: olive oil, sesame oil, peanut oil 112 % of control | dose: 200.0 mg/kg/injection, schedule: Q04DX003 (sc), vehicle: olive oil, sesame oil, peanut oil 106 % of control | dose: 400.0 mg/kg/injection, schedule: Q01DX009 (sc), vehicle: olive oil, sesame oil, peanut oil 101 % of control | dose: 400.0 mg/kg/injection, schedule: Q04DX003 (sc), vehicle: olive oil, sesame oil, peanut oil 108 % of control

O=C(CCC(C(=O)Nc1ccccc1)C(O)(c1ccccc1)c1ccccc1)Nc1ccccc1 (stereo not drawn)
inactive: dose: 100.0 mg/kg/injection, schedule: Q01DX001 (ip), vehicle: other 91 % of control | dose: 200.0 mg/kg/injection, schedule: Q01DX001 (ip), vehicle: other 91 % of control | dose: 400.0 mg/kg/injection, schedule: Q01DX001 (ip), vehicle: other 89 % of control

CCOc1ccc(Br)cc1/C=C(\C#N)c1ccc([N+](=O)[O-])cc1
inactive: [7] 92 % of control

COc1cccc(C(=O)NC[n+]2ccccc2)c1
inactive: dose: 25.0 mg/kg/injection, schedule: Q01DX009 (ip), vehicle: saline 92 % of control | dose: 25.0 mg/kg/injection, schedule: Q04DX003 (ip), vehicle: saline 96 % of control | dose: 50.0 mg/kg/injection, schedule: Q01DX009 (ip), vehicle: saline 87 % of control | dose: 50.0 mg/kg/injection, schedule: Q04DX003 (ip), vehicle: saline 86 % of control | dose: 100.0 mg/kg/injection, schedule: Q04DX003 (ip), vehicle: saline 100 % of control

CC(=O)OCC1OC(Sc2ccc([N+](=O)[O-])cc2[N+](=O)[O-])C(OC(C)=O)C(OC(C)=O)C1OC(C)=O (stereo not drawn)
inactive: [8] 96 % of control | [9] 101 % of control | dose: 400.0 mg/kg/injection, schedule: Q01DX001 (ip), vehicle: saline with Tween-80 93 % of control

Cc1ccc(C)c(C(=O)c2ccccc2C(=O)O)c1
inactive: dose: 10.0 mg/kg/injection, schedule: Q01DX009 (ip), vehicle: saline 101 % of control | dose: 100.0 mg/kg/injection, schedule: Q01DX009 (ip), vehicle: saline sonified 98 % of control | [1] 90 % of control | dose: 200.0 mg/kg/injection, schedule: Q01DX009 (ip), vehicle: saline sonified 94 % of control | dose: 200.0 mg/kg/injection, schedule: Q01DX009 (ip), vehicle: saline 103 % of control | [2] 94 % of control | dose: 400.0 mg/kg/injection, schedule: Q01DX009 (ip), vehicle: saline sonified 105 % of control | dose: 400.0 mg/kg/injection, schedule: Q01DX009 (ip), vehicle: saline 98 % of control | [3] 90 % of control

COc1nc(=O)n(C2CCCO2)cc1I (stereo not drawn)
inactive: dose: 50.0 mg/kg/injection, schedule: Q01DX001 (ip), vehicle: saline 95 % of control | dose: 100.0 mg/kg/injection, schedule: Q01DX001 (ip), vehicle: saline 95 % of control | dose: 200.0 mg/kg/injection, schedule: Q01DX001 (ip), vehicle: saline 90 % of control

COc1ccc(/C=N/NC(=O)CCCCCCCCC(=O)N/N=C/c2ccc(OC)c(OC)c2)cc1OC
inactive: [7] 98 % of control and 105 % of control | [10] 97 % of control and 101 % of control | [8] 95 % of control | dose: 100.0 mg/kg/injection, schedule: Q04DX002 (ip), vehicle: saline 90 % of control | [1] 94 % of control | [9] 114 % of control | dose: 200.0 mg/kg/injection, schedule: Q04DX002 (ip), vehicle: saline 97 % of control and 90 % of control | [2] 109 % of control | dose: 400.0 mg/kg/injection, schedule: Q04DX002 (ip), vehicle: saline 101 % of control and 103 % of control | [3] 96 % of control

C=CCOc1cc(C)cc(C)c1C
inactive: [11] 95 % of control | dose: 85.0 mg/kg/injection, schedule: Q04DX003 (ip), vehicle: Klucel (hydroxypropylcellulose) (HPC) 90 % of control | [12] 94 % of control | [4] 112 % of control | dose: 135.0 mg/kg/injection, schedule: Q04DX003 (ip), vehicle: Klucel (hydroxypropylcellulose) (HPC) 90 % of control | [13] 89 % of control | [5] 88 % of control | dose: 300.0 mg/kg/injection, schedule: Q04DX003 (ip), vehicle: Klucel (hydroxypropylcellulose) (HPC) 90 % of control | [6] 120 % of control

COC(=O)/C(=C\c1ccncc1)c1cccc2ccccc12
inactive: [1] 104 % of control | [2] 100 % of control | [3] 94 % of control

O=C(CCCN1CCN(c2ccccn2)CC1)c1ccc(F)cc1
inactive: dose: 12.5 mg/kg/injection, schedule: Q01DX009 (ip), vehicle: Klucel (hydroxypropylcellulose) (HPC) 96 % of control and 106 % of control | dose: 25.0 mg/kg/injection, schedule: Q01DX009 (ip), vehicle: Klucel (hydroxypropylcellulose) (HPC) 97 % of control and 101 % of control and 106 % of control | dose: 25.0 mg/kg/injection, schedule: Q04DX003 (ip), vehicle: Klucel (hydroxypropylcellulose) (HPC) 97 % of control | [11] 108 % of control and 109 % of control and 114 % of control | dose: 50.0 mg/kg/injection, schedule: Q04DX003 (ip), vehicle: Klucel (hydroxypropylcellulose) (HPC) 108 % of control | [12] 108 % of control and 110 % of control | [4] 103 % of control | [13] 105 % of control and 110 % of control | [5] 123 % of control

CCCN1C(=O)C=CC1=O
inactive: [7] 96 % of control | dose: 25.0 mg/kg/injection, schedule: Q04DX003 (ip), vehicle: saline with Tween-80 91 % of control | [10] 96 % of control | dose: 50.0 mg/kg/injection, schedule: Q04DX003 (ip), vehicle: saline with Tween-80 92 % of control | dose: 100.0 mg/kg/injection, schedule: Q01DX009 (ip), vehicle: saline with Tween-80 95 % of control | [1] 97 % of control

Nc1c(N=O)c(=O)n(Cc2ccccc2)c(=O)n1Cc1ccccc1
inactive: dose: 50.0 mg/kg/injection, schedule: Q01DX001 (ip), vehicle: carboxymethylcellulose (CMC) 103 % of control | [14] 105 % of control | [15] 97 % of control | [16] 100 % of control

O=C(Nc1ccc(S(=O)(=O)N2CCCCC2)cc1)OC(c1ccccc1)(c1ccccc1)c1ccccc1
inactive: [14] 94 % of control | [15] 91 % of control | [16] 89 % of control

CCOCc1cc([N+](=O)[O-])cc([N+](=O)[O-])c1O
inactive: dose: 5.56 mg/kg/injection, schedule: Q01DX009 (ip), vehicle: saline with Tween-80 90 % of control | dose: 8.33 mg/kg/injection, schedule: Q01DX009 (ip), vehicle: saline with Tween-80 108 % of control | dose: 12.5 mg/kg/injection, schedule: Q01DX009 (ip), vehicle: saline with Tween-80 95 % of control | dose: 18.7 mg/kg/injection, schedule: Q01DX009 (ip), vehicle: saline with Tween-80 104 % of control | [7] 103 % of control | [10] 93 % of control

COC(=O)CC[S+](C)CCC(=O)OC
inactive: dose: 7.5 mg/kg/injection, schedule: Q04DX003 (ip), vehicle: saline 100 % of control | dose: 15.0 mg/kg/injection, schedule: Q04DX003 (ip), vehicle: saline 107 % of control | dose: 30.0 mg/kg/injection, schedule: Q04DX003 (ip), vehicle: saline 105 % of control

C/C(=C\C(=O)Nc1ncn[nH]1)Nc1ncn[nH]1
inactive: [12] 100 % of control | [4] 95 % of control | [13] 92 % of control | [5] 106 % of control | dose: 400.0 mg/kg/injection, schedule: Q01DX009 (ip), vehicle: Klucel (hydroxypropylcellulose) (HPC) 102 % of control | [6] 93 % of control

CC1CC2NC(C)CC3NC(C)CC(N1)N32 (stereo not drawn)
inactive: [4] 106 % of control | [5] 97 % of control | [6] 111 % of control
